How the values were obtained:
Format in all cases: functional
Escherichia coli [1] = experiment: Antibacterial activity against Escherichia coli MTCC 1573 at 1000 ug/ml after 48 hr by cup-plate method; conditions: MTCC 1573, 48 h, read-out: DIZ
Escherichia coli [2] = experiment: Antibacterial activity against Escherichia coli MTCC 1573 at 750 ug/ml after 48 hr by cup-plate method; conditions: MTCC 1573, 48 h, read-out: DIZ
Micrococcus luteus [3] = experiment: Antibacterial activity against Micrococcus luteus MTCC 1538 at 1000 ug/ml after 48 hr by cup-plate method; conditions: MTCC 1538, 48 h, read-out: DIZ
Micrococcus luteus [4] = experiment: Antibacterial activity against Micrococcus luteus MTCC 1538 at 750 ug/ml after 48 hr by cup-plate method; conditions: MTCC 1538, 48 h, read-out: DIZ
Escherichia coli [5] = experiment: Antibacterial activity against Escherichia coli MTCC 1573 at 500 ug/ml after 48 hr by cup-plate method; conditions: MTCC 1573, 48 h, read-out: DIZ
Escherichia coli [6] = experiment: Antibacterial activity against Escherichia coli MTCC 1573 at 100 ug/ml after 48 hr by cup-plate method; conditions: MTCC 1573, 48 h, read-out: DIZ
Escherichia coli [7] = experiment: Antibacterial activity against Escherichia coli MTCC 1573 at 250 ug/ml after 48 hr by cup-plate method; conditions: MTCC 1573, 48 h, read-out: DIZ
Micrococcus luteus [8] = experiment: Antibacterial activity against Micrococcus luteus MTCC 1538 at 1250 ug/ml after 48 hr by cup-plate method; conditions: MTCC 1538, 48 h, read-out: DIZ
Micrococcus luteus [9] = experiment: Antibacterial activity against Micrococcus luteus MTCC 1538 at 500 ug/ml after 48 hr by cup-plate method; conditions: MTCC 1538, 48 h, read-out: DIZ
Micrococcus luteus [10] = experiment: Antibacterial activity against Micrococcus luteus MTCC 1538 at 250 ug/ml after 48 hr by cup-plate method; conditions: MTCC 1538, 48 h, read-out: DIZ
Micrococcus luteus [11] = experiment: Antibacterial activity against Micrococcus luteus MTCC 1538 at 100 ug/ml after 48 hr by cup-plate method; conditions: MTCC 1538, 48 h, read-out: DIZ
Bacillus pumilus [12] = experiment: Antibacterial activity against Bacillus pumilus MTCC 1456 at 1250 ug/ml after 48 hr by cup-plate method; conditions: MTCC 1456, 48 h, read-out: DIZ
Bacillus pumilus [13] = experiment: Antibacterial activity against Bacillus pumilus MTCC 1456 at 1000 ug/ml after 48 hr by cup-plate method; conditions: MTCC 1456, 48 h, read-out: DIZ
Bacillus pumilus [14] = experiment: Antibacterial activity against Bacillus pumilus MTCC 1456 at 750 ug/ml after 48 hr by cup-plate method; conditions: MTCC 1456, 48 h, read-out: DIZ
Bacillus pumilus [15] = experiment: Antibacterial activity against Bacillus pumilus MTCC 1456 at 500 ug/ml after 48 hr by cup-plate method; conditions: MTCC 1456, 48 h, read-out: DIZ
Bacillus pumilus [16] = experiment: Antibacterial activity against Bacillus pumilus MTCC 1456 at 250 ug/ml after 48 hr by cup-plate method; conditions: MTCC 1456, 48 h, read-out: DIZ
Bacillus pumilus [17] = experiment: Antibacterial activity against Bacillus pumilus MTCC 1456 at 100 ug/ml after 48 hr by cup-plate method; conditions: MTCC 1456, 48 h, read-out: DIZ
Staphylococcus aureus [18] = experiment: Antibacterial activity against Staphylococcus aureus MTCC 1430 at 1250 ug/ml after 48 hr by cup-plate method; conditions: MTCC 1430, 48 h, read-out: DIZ
Staphylococcus aureus [19] = experiment: Antibacterial activity against Staphylococcus aureus MTCC 1430 at 1000 ug/ml after 48 hr by cup-plate method; conditions: MTCC 1430, 48 h, read-out: DIZ
Staphylococcus aureus [20] = experiment: Antibacterial activity against Staphylococcus aureus MTCC 1430 at 750 ug/ml after 48 hr by cup-plate method; conditions: MTCC 1430, 48 h, read-out: DIZ
Staphylococcus aureus [21] = experiment: Antibacterial activity against Staphylococcus aureus MTCC 1430 at 500 ug/ml after 48 hr by cup-plate method; conditions: MTCC 1430, 48 h, read-out: DIZ
Staphylococcus aureus [22] = experiment: Antibacterial activity against Staphylococcus aureus MTCC 1430 at 250 ug/ml after 48 hr by cup-plate method; conditions: MTCC 1430, 48 h, read-out: DIZ
Pseudomonas aeruginosa [23] = experiment: Antibacterial activity against Pseudomonas aeruginosa MTCC 424 at 1250 ug/ml after 48 hr by cup-plate method; conditions: MTCC 424, 48 h, read-out: DIZ
Pseudomonas aeruginosa [24] = experiment: Antibacterial activity against Pseudomonas aeruginosa MTCC 424 at 1000 ug/ml after 48 hr by cup-plate method; conditions: MTCC 424, 48 h, read-out: DIZ
Pseudomonas aeruginosa [25] = experiment: Antibacterial activity against Pseudomonas aeruginosa MTCC 424 at 750 ug/ml after 48 hr by cup-plate method; conditions: MTCC 424, 48 h, read-out: DIZ
Pseudomonas aeruginosa [26] = experiment: Antibacterial activity against Pseudomonas aeruginosa MTCC 424 at 500 ug/ml after 48 hr by cup-plate method; conditions: MTCC 424, 48 h, read-out: DIZ
Pseudomonas aeruginosa [27] = experiment: Antibacterial activity against Pseudomonas aeruginosa MTCC 424 at 250 ug/ml after 48 hr by cup-plate method; conditions: MTCC 424, 48 h, read-out: DIZ
Pseudomonas aeruginosa [28] = experiment: Antibacterial activity against Pseudomonas aeruginosa MTCC 424 at 100 ug/ml after 48 hr by cup-plate method; conditions: MTCC 424, 48 h, read-out: DIZ

SMILES: O=[N+]([O-])c1ccc(C2CC(c3cccc4ccccc34)=NN2c2ccc([N+](=O)[O-])cc2[N+](=O)[O-])cc1 (stereo not drawn)
- zone of inhibition at 1000 µg/mL (Escherichia coli [1]): 14 mm
- zone of inhibition at 750 µg/mL (Escherichia coli [2]): 12 mm
- zone of inhibition at 1000 µg/mL (Micrococcus luteus [3]): 12 mm
- zone of inhibition at 750 µg/mL (Micrococcus luteus [4]): 11 mm
- zone of inhibition at 500 µg/mL (Escherichia coli [5]): 11 mm
- zone of inhibition at 100 µg/mL (Escherichia coli [6]): 9 mm
- zone of inhibition at 250 µg/mL (Escherichia coli [7]): 10 mm
- zone of inhibition at 1250 µg/mL (Micrococcus luteus [8]): 14 mm
- zone of inhibition at 500 µg/mL (Micrococcus luteus [9]): 10 mm
- zone of inhibition at 250 µg/mL (Micrococcus luteus [10]): 9 mm
- zone of inhibition at 100 µg/mL (Micrococcus luteus [11]): 8 mm
- zone of inhibition at 1250 µg/mL (Bacillus pumilus [12]): 24 mm
- zone of inhibition at 1000 µg/mL (Bacillus pumilus [13]): 22 mm
- zone of inhibition at 750 µg/mL (Bacillus pumilus [14]): 20 mm
- zone of inhibition at 500 µg/mL (Bacillus pumilus [15]): 18 mm
- zone of inhibition at 250 µg/mL (Bacillus pumilus [16]): 11 mm
- zone of inhibition at 100 µg/mL (Bacillus pumilus [17]): 10 mm
- zone of inhibition at 1250 µg/mL (Staphylococcus aureus [18]): 14 mm
- zone of inhibition at 1000 µg/mL (Staphylococcus aureus [19]): 12 mm
- zone of inhibition at 750 µg/mL (Staphylococcus aureus [20]): 10 mm
- zone of inhibition at 500 µg/mL (Staphylococcus aureus [21]): 9 mm
- zone of inhibition at 250 µg/mL (Staphylococcus aureus [22]): 8 mm
- zone of inhibition at 1250 µg/mL (Pseudomonas aeruginosa [23]): 17 mm
- zone of inhibition at 1000 µg/mL (Pseudomonas aeruginosa [24]): 14 mm
- zone of inhibition at 750 µg/mL (Pseudomonas aeruginosa [25]): 13 mm
- zone of inhibition at 500 µg/mL (Pseudomonas aeruginosa [26]): 12 mm
- zone of inhibition at 250 µg/mL (Pseudomonas aeruginosa [27]): 11 mm
- zone of inhibition at 100 µg/mL (Pseudomonas aeruginosa [28]): 10 mm
